Read-outs that look alike come from different tables or passages of the source.
How the values were obtained:
Format in all cases: in vivo
[1] = tested on: ducksalad (Heteranthera limosa); assay: Test B flooded paddy test; conditions: Heteranthera limosa, 250 g ai/ha, Flood
In short: (§1)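 2-leaf plants; pots flooded 3 cm over soil; cpd added to paddy water; depth held; greenhouse 13–15 d; visual rating vs controls, 0 = no effect, 100 = complete control.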

[2] = tested on: barnyardgrass (Echinochloa crus-galli); assay: Test B flooded paddy test; conditions: Echinochloa crus-galli, 250 g ai/ha, Flood
In short: as §1

rice (Oryra sativa) = assay: Test B flooded paddy test; conditions: Oryza sativa, 250 g ai/ha, Flood
In short: as §1

[3] = tested on: sedge, umbrella (small-flower umbrella sedge, Cyperus difformis); assay: Test B flooded paddy test; conditions: Cyperus difformis, 250 g ai/ha, Flood
In short: as §1

[4] = tested on: giant foxtail (Setaria faberii); assay: Test A preemergence; conditions: Setaria faberi, pre-emergence, 240 h; for pest or weed control at 125 g/ha: 125 g ai/ha; for pest or weed control at 500 g/ha: 500 g ai/ha
In short: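 Compounds were formulated in a non-phytotoxic solvent mixture with surfactant and applied as a preemergence directed soil spray after seeding, or sprayed postemergence over plants 2 to 10 cm tall at the one- to two-leaf stage. Evaluation after about 10 d compared treated with untreated controls, using a scale from 0 (no effect) to 100 (complete control).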

[5] = 0 to 100 scale where 0 is no effect and 100 is complete control, read-out: Ducksalad plant response rating
[6] = 0 to 100 scale where 0 is no effect and 100 is complete control, read-out: Barnyardgrass plant response rating
[7] = 0 to 100 scale where 0 is no effect and 100 is complete control, read-out: Rice plant response rating
[8] = 0 to 100 scale where 0 is no effect and 100 is complete control, read-out: Sedge, Umbrella plant response rating
[9] = preemergence, visual injury rating, 0 to 100 scale where 0 is no effect and 100 is complete control, approximately 10 d, read-out: Foxtail, Giant plant response rating
[10] = preemergence, 0 to 100 scale where 0 is no effect and 100 is complete control, read-out: Foxtail, Giant plant response rating
[11] = Preemergence, 0 to 100 scale (0 no effect, 100 complete control), read-out: Plant response rating, Foxtail, Giant
[12] = 360 h, visually evaluated after 13 to 15 d, read-out: Plant response rating, Sedge, Umbrella (0 to 100 scale where 0 is no effect and 100 is complete control)
[13] = preemergence, 0 to 100 scale (0 no effect, 100 complete control), read-out: Plant response rating, Foxtail, Giant
[14] = 360 h, visually evaluated after 13 to 15 d, read-out: Plant response rating, Ducksalad (0 to 100 scale where 0 is no effect and 100 is complete control)
[15] = 360 h, visually evaluated after 13 to 15 d, read-out: Plant response rating, Barnyardgrass (0 to 100 scale where 0 is no effect and 100 is complete control)
[16] = 360 h, visually evaluated after 13 to 15 d, read-out: Plant response rating, Rice (0 to 100 scale where 0 is no effect and 100 is complete control)

SMILES	pest or weed control at 250 g/ha [1, 5] [%]	pest or weed control at 250 g/ha [2, 6] [%]	pest or weed control at 250 g/ha (rice (Oryra sativa); [7]) [%]	pest or weed control at 250 g/ha [3, 8] [%]	pest or weed control at 125 g/ha [4, 9] [%]	pest or weed control at 500 g/ha [4, 10] [%]	pest or weed control at 125 g/ha [4, 11] [%]	pest or weed control at 250 g/ha [3, 12] [%]	pest or weed control at 500 g/ha [4, 13] [%]	pest or weed control at 250 g/ha [1, 14] [%]	pest or weed control at 250 g/ha [2, 15] [%]	pest or weed control at 250 g/ha (rice (Oryra sativa); [16]) [%]
CN1C[C@H](c2ccc(F)c(Br)c2)[C@@H](C(=O)Nc2cccc(F)c2F)C1=O [Compound 1234]	100	90	75	0	100	100	–	–	–	–	–	–
O=C1NC[C@H](c2ccc(C(F)(F)F)cc2)C1C(=O)Nc1ccccc1CO (stereo partly drawn) [Compound 1242]	75	0	0	0	30	80	–	–	–	–	–	–
Cc1cc([C@H]2CNC(=O)[C@@H]2C(=O)Nc2ccccc2C(F)(F)F)ccc1Cl [Compound 1245]	90	0	0	0	80	90	–	–	–	–	–	–
Cc1ccc([C@H]2CNC(=O)[C@@H]2C(=O)Nc2c(F)cccc2F)cc1C [Compound 1247]	55	20	0	0	20	80	–	–	–	–	–	–
CSc1ccccc1NC(=O)[C@H]1C(=O)N(C)C[C@@H]1c1cccc(C(F)(F)F)c1 [Compound 1249]	100	60	0	0	100	100	–	–	–	–	–	–
CSc1ccccc1NC(=O)[C@H]1C(=O)N(C)C[C@@H]1c1ccc2c(c1)OC(F)(F)O2 [Compound 1251]	90	0	0	0	100	100	–	–	–	–	–	–
Cc1c(F)cccc1NC(=O)[C@H]1C(=O)N(C)C[C@@H]1c1ccc2c(c1)OC(F)(F)O2 [Compound 1252]	100	65	30	0	90	100	–	–	–	–	–	–
CN1C[C@H](c2ccc(F)c(C#N)c2)[C@@H](C(=O)Nc2ccccc2F)C1=O [Compound 1254]	100	60	0	0	90	100	–	–	–	–	–	–
CSc1ccccc1NC(=O)[C@H]1C(=O)NC[C@@H]1c1ccc2c(c1)OCO2 [Compound 1257]	0	20	0	0	0	0	–	–	–	–	–	–
COc1cc([C@H]2CN(C)C(=O)[C@@H]2C(=O)Nc2cccc(F)c2F)ccc1F [Compound 1299]	85	65	20	40	90	90	–	–	–	–	–	–
COc1cc([C@H]2CN(C)C(=O)[C@@H]2C(=O)Nc2ccccc2SC)ccc1F [Compound 1301]	20	0	0	0	90	90	–	–	–	–	–	–
Cc1c(F)cccc1NC(=O)[C@H]1C(=O)NC[C@@H]1c1cccc2c1OC(F)(F)O2 [Compound 1305]	70	20	0	0	90	90	–	–	–	–	–	–
Cc1cc([C@H]2CN(C)C(=O)[C@@H]2C(=O)Nc2cccc(F)c2C)ccc1F [Compound 1311]	100	80	0	0	–	100	100	–	–	–	–	–
CN1C[C@H](c2cccc(C(C)(F)F)c2)[C@@H](C(=O)Nc2cccc(F)c2F)C1=O [Compound 1316]	90	75	0	–	–	90	90	0	–	–	–	–
CN1C[C@H](c2cccc(C(C)(F)F)c2)[C@@H](C(=O)Nc2ccccc2F)C1=O [Compound 1317]	100	85	0	–	–	100	90	0	–	–	–	–
CN1C[C@H](c2cccc(C(C)(F)F)c2)[C@@H](C(=O)Nc2ccccc2S(C)(=O)=O)C1=O [Compound 1318]	85	65	0	–	–	90	90	0	–	–	–	–
CS(=O)(=O)c1ccccc1NC(=O)[C@H]1C(=O)NC[C@@H]1c1ccc2c(c1)CCO2 [Compound 1320]	50	0	0	–	–	80	0	0	–	–	–	–
CN1C[C@H](c2ccc3c(c2)CCO3)[C@@H](C(=O)Nc2ccc(F)c(F)c2F)C1=O [Compound 1323]	85	90	10	–	–	90	90	0	–	–	–	–
Cc1c(F)ccc([C@H]2CNC(=O)[C@@H]2C(=O)Nc2cccc(F)c2F)c1F [Compound 1327]	100	30	0	–	–	–	70	0	90	–	–	–
Cc1c(F)ccc([C@H]2CNC(=O)[C@@H]2C(=O)Nc2ccc(F)cc2F)c1F [Compound 1328]	–	–	–	–	–	–	50	0	90	50	0	0
COc1cc(OC)cc([C@H]2CN(C)C(=O)[C@@H]2C(=O)Nc2cccc(F)c2F)c1 [Compound 1370]	–	–	–	–	–	–	90	0	90	70	60	20
CN1C[C@H](c2ccc(OC(F)F)cc2)[C@@H](C(=O)Nc2ccccc2F)C1=O [Compound 1371]	–	–	–	–	–	–	90	0	90	100	60	0
Cc1ccc([C@H]2CN(C)C(=O)[C@@H]2C(=O)Nc2ccccc2F)cc1Cl [Compound 1384]	–	–	–	–	–	–	90	0	90	100	65	40
CC(C)c1cccc([C@H]2CN(C)C(=O)[C@@H]2C(=O)Nc2cccc(F)c2F)c1 [Compound 1388]	–	–	–	–	–	–	100	0	100	80	65	0

— patent publication US12077503B2, “Substituted cyclic amides and their use as herbicides” (FMC CORPORATION, priority 2015, dated 2024)
